According to ChEMBL document CHEMBL1146305, “Synthesis of pyochelin-norfloxacin conjugates” (Bioorg Med Chem Lett, 2007):
Calls of active or inactive are those of the source. The calls are words filed in the database; no cut-off is given here.

Test system: Pseudomonas aeruginosa
Assay: Antibacterial activity against Pseudomonas aeruginosa PAO1
Type: functional, organism-based

SMILES | Activity
CCn1cc(C(=O)O)c(=O)c2cc(F)c(N3CCN(C(=O)OCOC(=O)CCC(=O)NCC#Cc4ccc(O)c(C5=NC(C6SCC(C(=O)O)N6C)CS5)c4)CC3)cc21 (configuration not stated) | Active
CCn1cc(C(=O)O)c(=O)c2cc(F)c(N3CCN(C(=O)OCOC(=O)CCC(=O)NCCCc4ccc(O)c(C5=NC(C6SCC(C(=O)O)N6C)CS5)c4)CC3)cc21 (configuration not stated) | Active
